In US20050176641A1, “Long lasting natriuretic peptide derivatives” (CONJUCHEM, INC., priority 2000, published 2005):
Like-named read-outs stand apart in the source and are kept apart here. Positions of bridges follow the written chain, without caps; N, C: chain ends. Residues, ends and D or L forms follow the SMILES beside them.

Columns and labels:
[1] = target: NPR receptors; assay: Binding to guinea pig adrenal gland membranes by displacement of 125I-rANP
Experimental: The potency of NP derivatives is evaluated as their ability to bind NPR receptors in guinea pig adrenal glands and to elevate cGMP levels in a rat primary lung fibroblasts assay. Others cell lines can be used to perform these in vitro assays such as aortic smooth muscle cells, glomeruli mesangial cells and adrenal cells. Human, rat, and ginea pig cell lines or other species cell lines can be used with a preference for human cell lines.
Membranes for binding studies are prepared as follow. Adrenal glands were collected from anesthetized normal Duncan Hartley Guinea Pig and homogenized using a polytron in 50 mM Tris-HCl buffer containing 150 mM NaCl, 5 mM MgCl2, 5 mM MnCl2; pH 7.4 at 25° C. The homogenate was centrifuged for 10 minutes at 39,000×g (4° C.). The pellet was resuspended and washed. Finally, the membranes were resuspended in the same buffer supplemented with 1 mM Na2EDTA+0.2% BSA. Protein concentration is measured using the BCA protein assay kit (Pierce). The binding assay is done by incubation of membranes with 0.016 nM ^125I-rANF and increasing concentrations of either NP peptides or NP derivatives (10^−5-10^−11 M) for 60 minutes at 4° C. All assays were done in duplicate. Separation of bound and free radioactive rANF was achieved by rapid filtration through polyethylenimine-treated Whatman GF/C filters soaked in assay buffer. Filters were washed, dried and counted for radioactivity in a gamma-counter.

[2] = target: T1, natriuretic peptide receptors with guanylate cyclase activity (Homo sapiens, UniProt P16066); assay: cGMP production in human Hela cells; assay type: cell-based
T1 construct: Hela cells express high levels of natriuretic peptide receptors with guanylate cyclase activity; endogenous in cells; host or cells: HeLa (human cervix epithelial adenocarcinoma)
T1 sequence (P16066 33-1061): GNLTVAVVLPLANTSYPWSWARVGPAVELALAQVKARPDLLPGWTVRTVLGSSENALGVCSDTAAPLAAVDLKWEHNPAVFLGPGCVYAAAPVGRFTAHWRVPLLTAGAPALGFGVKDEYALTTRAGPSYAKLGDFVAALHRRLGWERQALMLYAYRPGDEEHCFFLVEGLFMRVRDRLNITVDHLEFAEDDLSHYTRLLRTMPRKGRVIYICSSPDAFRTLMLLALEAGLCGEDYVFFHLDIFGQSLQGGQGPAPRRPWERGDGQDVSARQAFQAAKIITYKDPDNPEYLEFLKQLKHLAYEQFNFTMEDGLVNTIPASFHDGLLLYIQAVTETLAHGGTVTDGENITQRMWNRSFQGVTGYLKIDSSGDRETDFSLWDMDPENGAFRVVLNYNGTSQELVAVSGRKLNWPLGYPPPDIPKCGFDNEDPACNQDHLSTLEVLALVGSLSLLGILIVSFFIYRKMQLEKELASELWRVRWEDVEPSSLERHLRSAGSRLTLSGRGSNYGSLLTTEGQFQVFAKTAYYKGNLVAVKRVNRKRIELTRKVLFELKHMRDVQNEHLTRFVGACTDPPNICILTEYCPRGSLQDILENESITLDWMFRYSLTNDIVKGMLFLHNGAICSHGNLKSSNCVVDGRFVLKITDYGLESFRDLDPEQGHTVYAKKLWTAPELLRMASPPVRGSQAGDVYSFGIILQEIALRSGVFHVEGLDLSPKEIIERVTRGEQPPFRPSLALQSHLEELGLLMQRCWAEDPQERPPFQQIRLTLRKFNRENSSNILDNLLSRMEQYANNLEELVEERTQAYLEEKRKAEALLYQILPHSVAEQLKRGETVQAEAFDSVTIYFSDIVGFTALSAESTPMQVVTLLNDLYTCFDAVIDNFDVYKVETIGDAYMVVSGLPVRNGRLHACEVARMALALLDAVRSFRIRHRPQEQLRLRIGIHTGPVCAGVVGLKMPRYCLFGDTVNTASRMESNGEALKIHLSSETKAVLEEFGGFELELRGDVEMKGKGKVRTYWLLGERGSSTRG
Experimental: For in vitro activity studies, a human cervix epithelial adenocarcinoma cell line was used. Hela cells express high levels of natriuretic peptide receptors with guanylate cyclase activity.
One day prior cGMP experiments, cells are seeded in 48-wells plate (5×10^4 cells per well) and incubated overnight. The day of the experiment cells are washed twice in serum-free media and then incubated with or without NP derivatives or native ANP or BNP for one hour, in presence of 3-isobutyl-1-methylxanthine to prevent cGMP degradation. Incubation is terminated by removing the assay medium and by adding HCl to the cells for 10 minutes. The supernatants were then collected, centrifuged and cGMP levels are assessed using the direct cGMP EIA kit from Sigma.

[3] = literature values; cited from earlier work
[4] = human Hela cells, one hour incubation, with 3-isobutyl-1-methylxanthine, read-out: EC50 (M), increase of cGMP production

Q: Which results are given for `CC[C@H](C)[C@@H]1NC(=O)[C@H](CCCNC(=N)N)NC(=O)[C@H](CC(=O)O)NC(=O)[C@H](CCSC)NC(=O)[C@H](CCCCN)NC(=O)[C@H](CCCNC(=N)N)NC(=O)CNC(=O)[C@H](Cc2ccccc2)NC(=O)[C@@H](NC(=O)CNC(=O)[C@H](CO)NC(=O)CNC(=O)[C@H](CCC(N)=O)NC(=O)[C@@H](NC(=O)[C@H](CCSC)NC(=O)[C@H](CCCCN)NC(=O)[C@@H]2CCCN2C(=O)[C@@H](N)CO)C(C)C)CSSC[C@@H](C(=O)N[C@@H](CCCCN)C(=O)N[C@H](C(=O)N[C@@H](CC(C)C)C(=O)N[C@@H](CCCNC(=N)N)C(=O)N[C@@H](CCCNC(=N)N)C(=O)N[C@@H](Cc2c[nH]cn2)C(N)=O)C(C)C)NC(=O)CNC(=O)[C@H](CC(C)C)NC(=O)CNC(=O)[C@H](CO)NC(=O)[C@H](CO)NC(=O)[C@H](CO)NC(=O)[C@H](CO)NC1=O` [Example 21]?
A: Ki ([1]; displacement of 125I-ANF, read-out: apparent inhibition constant (Ki value)): 4.8 nM; Ki ([1]; displacement of 125I-rANF, text gives the same Ki in M, read-out: KI (inhibition constant)): 4.86 nM; EC50 ([1]; read-out: EC50 (M), concentration at 50% of inhibition, displacement of 0.016 nM 125I-rANF, 60 minutes at 4° C.): 5.41e-09 M; EC50 [2]: 1.99e-08 M

Q: With `CC[C@H](C)[C@@H]1NC(=O)[C@H](CCCNC(=N)N)NC(=O)[C@H](CC(=O)O)NC(=O)[C@H]([C@@H](C)CC)NC(=O)[C@H](CCCNC(=N)N)NC(=O)CNC(=O)CNC(=O)[C@H](Cc2ccccc2)NC(=O)[C@@H](N)CSSC[C@@H](C(=O)N[C@@H](CC(N)=O)C(=O)N[C@@H](CO)C(=O)N[C@@H](Cc2ccccc2)C(=O)N[C@@H](CCCNC(=N)N)C(=O)N[C@@H](Cc2ccc(O)cc2)C(N)=O)NC(=O)CNC(=O)[C@H](CC(C)C)NC(=O)CNC(=O)[C@H](CO)NC(=O)[C@H](CCC(N)=O)NC(=O)[C@H](C)NC(=O)CNC1=O` [Example 13] (H-CFGGRIDRIGAQSGLGCNSFRY-NH2; disulfide 1-17) as the molecule, how does the EC50 [2, 4] read?
A: 2.72e-08 M

Q: With `CC[C@H](C)[C@@H]1NC(=O)[C@H](CCCNC(=N)N)NC(=O)[C@H](CC(=O)O)NC(=O)[C@H](CCSC)NC(=O)[C@H](CCCNC(=N)N)NC(=O)CNC(=O)CNC(=O)[C@H](Cc2ccccc2)NC(=O)[C@@H](N)CSSC[C@@H](C(=O)N[C@@H](CC(N)=O)C(=O)N[C@@H](CO)C(=O)N[C@@H](Cc2ccccc2)C(=O)N[C@@H](CCCNC(=N)N)C(=O)N[C@@H](Cc2ccc(O)cc2)C(N)=O)NC(=O)CNC(=O)[C@H](CC(C)C)NC(=O)CNC(=O)[C@H](CO)NC(=O)[C@H](CCC(N)=O)NC(=O)[C@H](C)NC(=O)CNC1=O` [Example 17] (H-CFGGRMDRIGAQSGLGCNSFRY-NH2; disulfide 1-17) as the molecule, how does the EC50 [2, 4] read?
A: 2.21e-08 M

Q: For “human BNP: native human Brain Natriuretic Peptide, 32 amino acid peptide”, which in vivo half-life [3] is on record?
A: 12.7 min
